Results published in US12329158B2, “Large-scale methods of uniformly coating packaging surfaces with a volatile antimicrobial to preserve food freshness” (AGROFRESH INC., priority 2013, dated 2025).

Experiments:
Botrytis cinerea [1] = test: Clamshells treated by sublimation; strawberries (Example 5); format: in vivo; conditions: 5 mg
Procedure: Five milligrams of Compound A was dissolved in 1 ml of ethanol prior to being uniformly administered to the interior of the clamshell by painting or spraying, and then dried for 5 minutes. After coating the clamshells with Compound A using various application techniques (i.e., sublimation, spraying, or painting), eight ethanol-washed strawberries were placed in the clamshell with stem end facing downwards. Each strawberry fruit was wounded using a T15 screwdriver tip to a uniform depth of eight mm (8 mm). […] Uninoculated strawberries were removed from their commercial package, and directly transferred into treated clamshells without any washing or inoculation steps.
Treated clamshells lids were closed, and then placed at 1° C. for an initial time period of 5 days. Clamshells were then removed from low temperature, and held for a second time period of 6 days at room temperature where the point of inoculation on the strawberry fruits was assessed for indication of disease incidence reported as a percentage (%). Severity of disease incidence was also reported.
This in vivo assay was used to evaluate the ability of Compound A to volatilize from a clamshell in order to control or inhibit fruit infection by pathogenic microorganism, Botrytis cinerea. This experiment was conducted exactly as described in Example 1, with a few exceptions. After equilibrating the clamshell overnight at 21° C., Compound A was administered to the clamshell by sublimation only. Compound A was sublimed onto the surface of the clamshell at a final treatment rate of 5 mg/clamshell. Strawberries were inoculated with Botrytis cinerea, placed within the clamshell for an initial time period of 6 days, and assessed for disease incidence and severity over a second time period of 7 days as described in Example 1.

Botrytis cinerea [2] = test: Gray mold on strawberry, volatile assay (Example 23); format: in vivo
Procedure: Eight strawberries (per repetition, in triplicate) are placed in an industry standard 1-lb PET clamshell with the stem-end facing down.
Compound A is mixed acetone and 250 μL of the mixture is pipetted into a small glass tube. […] After incubation, fruits are evaluated for disease (scale 0 to 4, with ≤1 indicating marketable fruit and 4 indicating ≥50% of fruit surface covered by pathogen) up to 4 days at 21° C.

Penicillium digitatum = test: Green mold on orange, contact assay (Example 25); format: in vivo; conditions: Contact (dip); rate not given; day 3 at 21 C after 5 days at 1 C
Procedure: A 250 mL solution of each concentration is used to dip two inoculated fruits, one minute per fruit, performed in triplicate per rate. The dipped fruits are then placed back into the clamshells and then into the SnapWare container and incubated at 1° C. for 5 days. […] Volatile application of Compound A results in excellent inhibition of browning and sporulation, whereas all other active ingredients result in no or little inhibition.

Botrytis cinerea [3] = test: Volatilization from treated clamshells onto inoculated agar plates (Example 2); format: cell-based
Procedure: An in vitro assay was used to evaluate the ability of Compound A to volatilize from a clamshell to control fungal pathogenic infection when applied to the clamshell by various application techniques. Multiple empty 1-lb PET clamshells (ProducePackaging.com, #036QT) were placed inside triplicate air-tight 36 L chamber (Fisher Scientific, Catalogue #08-642-23C) fitted with a bulkhead septum port (Swagelok, SS-401-61, Solon, OH).
Compound A headspace was permitted to equilibrate overnight at 21° C.
After spraying or painting, the clamshell was then permitted to dry for 5 minutes. After coating the clamshells with Compound A using various applications (i.e., sublimation, spraying, or painting), 10-cm Petri plates containing half strength Potato Dextrose Agar were inoculated with 1 μL of 1×10^5 spores/ml Botrytis cinerea spore suspension. The inoculated petri plates were then sealed with a breathable film (AeraSeal; P/N: B-100, Excel Scientific, Victorville, CA), and placed inside the treated clamshell.
(Series I). After incubation, plates were removed and cultures were evaluated for percent growth relative to a control based on measurement of fungal colony diameter (mm).
Meanwhile, freshly prepared inoculated plates were placed inside the clamshell for an additional three (3) days of incubation (Series 2). This process, where freshly prepared inoculated plates were placed inside the clamshell, was repeated twice more, to produce a 12 full day evaluation of 4 series of 3 days each.

In the case of `OB1OCc2cc(F)ccc21` [Compound A, 5-fluoro-1,3-dihydro-1-hydroxy-2,1-benzoxaborole], the “Gray Mold Incidence (%)” value (Botrytis cinerea [1]; Inoculated Fruit, Day 0) is reported as 0.0%, the “Gray Mold Severity (0-4)” value (Botrytis cinerea [1]; Inoculated Fruit, Day 0) is reported as 0.0 and the “Gray Mold Incidence (%)” value (Botrytis cinerea [1]; Inoculated Fruit, Day 1) is reported as 0.0%. For the same molecule, the “Gray Mold Severity (0-4)” value (Botrytis cinerea [1]; Inoculated Fruit, Day 1) was 0.0, the “Gray Mold Incidence (%)” value (Botrytis cinerea [1]; Inoculated Fruit, Day 2) was 0.0% and the “Gray Mold Severity (0-4)” value (Botrytis cinerea [1]; Inoculated Fruit, Day 2) was 0.0. For the same molecule, the “Gray Mold Incidence (%)” value (Botrytis cinerea [1]; Inoculated Fruit, Day 3) was 0.0%, the “Gray Mold Severity (0-4)” value (Botrytis cinerea [1]; Inoculated Fruit, Day 3) was 0.0 and the “Gray Mold Incidence (%)” value (Botrytis cinerea [1]; Inoculated Fruit, Day 4) was 0.0%. The “Gray Mold Severity (0-4)” value (Botrytis cinerea [1]; Inoculated Fruit, Day 4) was 0.0, the “Gray Mold Incidence (%)” value (Botrytis cinerea [1]; Inoculated Fruit, Day 5) was 16.7% and the “Gray Mold Severity (0-4)” value (Botrytis cinerea [1]; Inoculated Fruit, Day 5) was 0.1. For the same molecule, the “Gray Mold Incidence (%)” value (Botrytis cinerea [1]; Inoculated Fruit, Day 6) was 18.8%, the “Gray Mold Severity (0-4)” value (Botrytis cinerea [1]; Inoculated Fruit, Day 6) was 0.2 and the “Gray Mold Incidence (%)” value (Botrytis cinerea [1]; Inoculated Fruit, Day 7) was 16.7%. The “Gray Mold Severity (0-4)” value (Botrytis cinerea [1]; Inoculated Fruit, Day 7) was 0.3, the “Gray Mold Incidence (%)” value (Botrytis cinerea [1]; Uninoculated Fruit, Day 0) was 0.0% and the “Gray Mold Severity (0-4)” value (Botrytis cinerea [1]; Uninoculated Fruit, Day 0) was 0.0. For the same molecule, the “Gray Mold Incidence (%)” value (Botrytis cinerea [1]; Uninoculated Fruit, Day 1) was 2.6%, the “Gray Mold Severity (0-4)” value (Botrytis cinerea [1]; Uninoculated Fruit, Day 1) was 0.4 and the “Gray Mold Incidence (%)” value (Botrytis cinerea [1]; Uninoculated Fruit, Day 2) was 0.1%. The “Gray Mold Severity (0-4)” value (Botrytis cinerea [1]; Uninoculated Fruit, Day 2) was 1.0, the “Gray Mold Incidence (%)” value (Botrytis cinerea [1]; Uninoculated Fruit, Day 3) was 26.3% and the “Gray Mold Severity (0-4)” value (Botrytis cinerea [1]; Uninoculated Fruit, Day 3) was 1.0. The “Gray Mold Incidence (%)” value (Botrytis cinerea [1]; Uninoculated Fruit, Day 4) was 34.1%, the “Gray Mold Severity (0-4)” value (Botrytis cinerea [1]; Uninoculated Fruit, Day 4) was 1.0 and the “Gray Mold Incidence (%)” value (Botrytis cinerea [1]; Uninoculated Fruit, Day 5) was 40.0%. The “Gray Mold Severity (0-4)” value (Botrytis cinerea [1]; Uninoculated Fruit, Day 5) was 1.3, the “Gray Mold Incidence (%)” value (Botrytis cinerea [1]; Uninoculated Fruit, Day 6) was 43.3% and the “Gray Mold Severity (0-4)” value (Botrytis cinerea [1]; Uninoculated Fruit, Day 6) was 1.3. For the same molecule, the “Gray Mold Incidence (%)” value (Botrytis cinerea [1]; Uninoculated Fruit, Day 7) was 54.1%, the “Gray Mold Severity (0-4)” value (Botrytis cinerea [1]; Uninoculated Fruit, Day 7) was 1.6 and the “Disease Severity (0 to 4)” value (Botrytis cinerea [2]; 0.02 mg/L, Day 0) was 0.0. The “Disease Severity (0 to 4)” value (Botrytis cinerea [2]; 0.02 mg/L, Day 1) was 0.0, the “Disease Severity (0 to 4)” value (Botrytis cinerea [2]; 0.02 mg/L, Day 2) was 0.1 and the “Disease Severity (0 to 4)” value (Botrytis cinerea [2]; 0.02 mg/L, Day 3) was 0.2. The “Disease Severity (0 to 4)” value (Botrytis cinerea [2]; 0.02 mg/L, Day 4) was 0.7, the “Disease Severity (0 to 4)” value (Botrytis cinerea [2]; 0.1 mg/L, Day 0) was 0.0 and the “Disease Severity (0 to 4)” value (Botrytis cinerea [2]; 0.1 mg/L, Day 1) was 0.0. The “Disease Severity (0 to 4)” value (Botrytis cinerea [2]; 0.1 mg/L, Day 2) was 0.0, the “Disease Severity (0 to 4)” value (Botrytis cinerea [2]; 0.1 mg/L, Day 3) was 0.0 and the “Disease Severity (0 to 4)” value (Botrytis cinerea [2]; 0.1 mg/L, Day 4) was 0.0. The “Disease Severity (0 to 4)” value (Botrytis cinerea [2]; 0.5 mg/L, Day 0) was 0.0, the “Disease Severity (0 to 4)” value (Botrytis cinerea [2]; 0.5 mg/L, Day 1) was 0.0 and the “Disease Severity (0 to 4)” value (Botrytis cinerea [2]; 0.5 mg/L, Day 2) was 0.0. For the same molecule, the “Disease Severity (0 to 4)” value (Botrytis cinerea [2]; 0.5 mg/L, Day 3) was 0.0, the “Disease Severity (0 to 4)” value (Botrytis cinerea [2]; 0.5 mg/L, Day 4) was 0.0 and the “Disease Severity (0 to 4)” value (Botrytis cinerea [2]; 2.5 mg/L, Day 0) was 0.0. The “Disease Severity (0 to 4)” value (Botrytis cinerea [2]; 2.5 mg/L, Day 1) was 0.0, the “Disease Severity (0 to 4)” value (Botrytis cinerea [2]; 2.5 mg/L, Day 2) was 0.0 and the “Disease Severity (0 to 4)” value (Botrytis cinerea [2]; 2.5 mg/L, Day 3) was 0.0. For the same molecule, the “Disease Severity (0 to 4)” value (Botrytis cinerea [2]; 2.5 mg/L, Day 4) was 0.0, the “Orange Sporulation (mm)” value (Penicillium digitatum) was greater than 50 mm and the “Mycelial Growth Inhibition (%)” value (Botrytis cinerea [3]; Paint, 0.2 mg/clamshell, Series 1 (0 to 3 days)) was 3.4%. The “Mycelial Growth Inhibition (%)” value (Botrytis cinerea [3]; Paint, 1 mg/clamshell, Series 1 (0 to 3 days)) was 100.0%, the “Mycelial Growth Inhibition (%)” value (Botrytis cinerea [3]; Paint, 1 mg/clamshell, Series 2 (3 to 6 days)) was 18.8% and the “Mycelial Growth Inhibition (%)” value (Botrytis cinerea [3]; Paint, 5 mg/clamshell, Series 1 (0 to 3 days)) was 100.0%. The “Mycelial Growth Inhibition (%)” value (Botrytis cinerea [3]; Paint, 5 mg/clamshell, Series 2 (3 to 6 days)) was 100.0%, the “Mycelial Growth Inhibition (%)” value (Botrytis cinerea [3]; Paint, 5 mg/clamshell, Series 3 (6 to 9 days)) was 57.5% and the “Mycelial Growth Inhibition (%)” value (Botrytis cinerea [3]; Paint, 5 mg/clamshell, Series 4 (9 to 12 days)) was 44.7%. The “Mycelial Growth Inhibition (%)” value (Botrytis cinerea [3]; Spray, 0.2 mg/clamshell, Series 1 (0 to 3 days)) was 81.2%, the “Mycelial Growth Inhibition (%)” value (Botrytis cinerea [3]; Spray, 1 mg/clamshell, Series 1 (0 to 3 days)) was 100.0% and the “Mycelial Growth Inhibition (%)” value (Botrytis cinerea [3]; Spray, 1 mg/clamshell, Series 2 (3 to 6 days)) was 18.6%. For the same molecule, the “Mycelial Growth Inhibition (%)” value (Botrytis cinerea [3]; Spray, 1 mg/clamshell, Series 3 (6 to 9 days)) was 0.0%, the “Mycelial Growth Inhibition (%)” value (Botrytis cinerea [3]; Spray, 5 mg/clamshell, Series 1 (0 to 3 days)) was 100.0% and the “Mycelial Growth Inhibition (%)” value (Botrytis cinerea [3]; Spray, 5 mg/clamshell, Series 2 (3 to 6 days)) was 100.0%. The “Mycelial Growth Inhibition (%)” value (Botrytis cinerea [3]; Spray, 5 mg/clamshell, Series 3 (6 to 9 days)) was 61.2%, the “Mycelial Growth Inhibition (%)” value (Botrytis cinerea [3]; Spray, 5 mg/clamshell, Series 4 (9 to 12 days)) was 64.9% and the “Mycelial Growth Inhibition (%)” value (Botrytis cinerea [3]; Sublimation, 0.2 mg/clamshell, Series 1 (0 to 3 days)) was 90.9%. The “Mycelial Growth Inhibition (%)” value (Botrytis cinerea [3]; Sublimation, 0.2 mg/clamshell, Series 3 (6 to 9 days)) was 0.0%, the “Mycelial Growth Inhibition (%)” value (Botrytis cinerea [3]; Sublimation, 1 mg/clamshell, Series 1 (0 to 3 days)) was 90.1% and the “Mycelial Growth Inhibition (%)” value (Botrytis cinerea [3]; Sublimation, 5 mg/clamshell, Series 1 (0 to 3 days)) was 100.0%. For the same molecule, the “Mycelial Growth Inhibition (%)” value (Botrytis cinerea [3]; Sublimation, 5 mg/clamshell, Series 2 (3 to 6 days)) was 100.0%, the “Mycelial Growth Inhibition (%)” value (Botrytis cinerea [3]; Sublimation, 5 mg/clamshell, Series 3 (6 to 9 days)) was 83.1% and the “Mycelial Growth Inhibition (%)” value (Botrytis cinerea [3]; Sublimation, 5 mg/clamshell, Series 4 (9 to 12 days)) was 84.4%.
